This passage reports IC50 results from BindingDB's records for doi:10.1073/pnas.0608389103 (Johns Hopkins University, 2006).

Assay [1] deals with Methionine aminopeptidase 2 (Homo sapiens, UniProt P50579). As to the kind of experiment: MetAP Inhibition Assay. To be noted: pH 7.5; 22 °C. As to the method: (§1) The MetAP reaction with Co2+ as a cofactor is coupled to a prolyl aminopeptidase (ProAP) using Met-Pro-p-nitroanilide as substrate. MetAP-catalyzed cleavage of the N-terminal methionine produces prolyl-p-nitroanilide, which is rapidly hydrolyzed by ProAP to release a chromogenic product. […] The initial rate was calculated from the early part of the reaction progress curve (<5 min). Activity assays were performed in triplicate using eight to 16 concentrations of substrate or inhibitor.
Chain of Methionine aminopeptidase 2 (P50579 whole entry): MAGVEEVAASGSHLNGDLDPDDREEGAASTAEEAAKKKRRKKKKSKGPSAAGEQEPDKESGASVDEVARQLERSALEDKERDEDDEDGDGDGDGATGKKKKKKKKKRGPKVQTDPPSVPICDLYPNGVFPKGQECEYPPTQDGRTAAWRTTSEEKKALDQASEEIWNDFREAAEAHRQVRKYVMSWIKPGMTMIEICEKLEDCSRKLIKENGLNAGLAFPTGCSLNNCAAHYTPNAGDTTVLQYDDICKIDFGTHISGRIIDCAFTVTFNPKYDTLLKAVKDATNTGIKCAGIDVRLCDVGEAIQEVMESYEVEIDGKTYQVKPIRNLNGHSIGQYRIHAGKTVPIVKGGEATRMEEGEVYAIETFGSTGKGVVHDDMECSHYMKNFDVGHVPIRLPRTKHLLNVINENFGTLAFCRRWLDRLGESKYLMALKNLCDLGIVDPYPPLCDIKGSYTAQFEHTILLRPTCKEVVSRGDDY

The target in assay [2] is Methionine aminopeptidase 1 (Homo sapiens, UniProt P53582). Put plainly: MetAP Inhibition Assay. The note with it: pH 7.5; 22 °C. As to the method:
as §1

In assay [1], `CC(C)(C)C(=O)Nc1cccnc1C(=O)Nc1nccs1` [3-(2,2-dimethylpropanamido)-N-(1,3-thiazol-2-yl)pyridine-2-carboxamide] had an IC50 above 500 µM. On to `O=C(CCc1ccccc1)Nc1cccnc1C(=O)Nc1nccs1` [3-(3-phenylpropanamido)-N-(1,3-thiazol-2-yl)pyridine-2-carboxamide], for which the figures for the IC50 in assay [2] and in assay [1] were 3.5 µM and above 500 µM, respectively. In the case of `CC(C)C=Nc1cccnc1C(=O)Nc1nccs1` [3-[(E)-(2-methylpropylidene)amino]-N-(1,3-thiazol-2-yl)pyridine-2-carboxamide], the figures for the IC50 in assay [2] and in assay [1] were 6.4 µM and above 1000 µM, respectively. As for `CCCCCCCC(=O)Nc1cccnc1C(=O)Nc1nccs1` [3-octanamido-N-(1,3-thiazol-2-yl)pyridine-2-carboxamide], the half-inhibitory concentration (IC50) in assay [2] and in assay [1] was above 500 µM in each case. `CC(C)(C)OC(=O)Nc1cccnc1C(=O)Nc1nccs1` [tert-butyl N-[2-(1,3-thiazol-2-ylcarbamoyl)pyridin-3-yl]carbamate] returned an IC50 in assay [1] above 300 µM.
